# Experimental data reported in patent US8961924B2, “Metal complexes” (University of Zurich, priority 2008, dated 2015).
# Test: Model experiments with 99Tc complex kept at pH 1
# Assay type: physicochemical
# Conditions: complex with 99Tc; kept at pH 1 for days
compound,measurement,value
"[O]=[Tc]12(=[O])(=[O])[N]3CC[N]1CC[N]2CC3 [Compound 1, [TcO3(tacn)]^+]",hydrolysis at pH 1,without significant hydrolysis
